Source: patent publication US20070203091A1, “Methods and therapeutic compositions for improving liver, blood flow and skeletal muscle functions in advanced diseases and aging” (priority 2006, published 2007)
“Also recorded” adds a separate entry of the source. Like-named read-outs stand apart in the source and are kept apart here.

Columns and labels:
[1] = cited from earlier work
[2] = in vivo; cited from earlier work
[3] = Laboratory parameters, chemistry: LDH, bilirubin, SGOT, SGPT, Phase I study; format: in vivo, human
Text: Serum LDH levels are an established strong independent negative prognostic factor, inversely related to survival in a great variety of adverse clinical conditions. In advanced refractory cancers, high LDH and low Karnofsky's performance status are among the strongest established independent negative prognostic factors of survival and quality of life (29).

[4] = ATP infusion rate 500-1000 μg/kg/min
[5] = ATP infusion rate ≦100 μg/kg/min
[6] = Week 1 (Infusion 1), baseline, N=15
[7] = patients 502-505, week 1 (pre-dose) to week 13 (follow-up)

SMILES: Nc1ncnc2c1ncn2[C@@H]1O[C@H](COP(=O)(O)OP(=O)(O)OP(=O)(O)O)[C@@H](O)[C@H]1O [ATP, adenosine 5′-triphosphate]
- Cardiac Output [1, 4]: Increase
- Heart Rate [1, 4]: Increase
- Pulmonary Arterial Pressure [1, 4]: Decrease
- Pulmonary Vascular Resistance [1, 4]: Decrease
- Systemic Arterial Pressure [1, 4]: Decrease
- Systemic Vascular Resistance [1, 4]: Decrease
- Cardiac Output [1, 5]: Small Increase
- Heart Rate [1, 5]: do not affect; also recorded: No Change
- Pulmonary Arterial Pressure [1, 5]: No Change
- Pulmonary Vascular Resistance [1, 5]: Decrease
- Systemic Arterial Pressure [1, 5]: do not affect; also recorded: No Change
- Systemic Vascular Resistance [1, 5]: Small Decrease
- half-life of expanded ATP pools in red blood cells [2]: about 6 hours
- LDH, Change from Baseline, Median [3, 6]: 0.0 U/L
- LDH, Observed Values, Mean [3, 6]: 349.0 U/L
- LDH, Observed Values, Median [3, 6]: 265.0 U/L
- Phosphorus, Change from Baseline, Mean [3, 6]: 0.0 mg/dL
- Phosphorus, Change from Baseline, Median [3, 6]: 0.0 mg/dL
- Phosphorus, Observed Values, Mean [3, 6]: 3.1 mg/dL
- Phosphorus, Observed Values, Median [3, 6]: 3.2 mg/dL
- Total Bilirubin, Change from Baseline, Mean [3, 6]: 0.0 mg/dL
- Total Bilirubin, Change from Baseline, Median [3, 6]: 0.0 mg/dL
- Total Bilirubin, Observed Values, Mean [3, 6]: 0.7 mg/dL
- Total Bilirubin, Observed Values, Median [3, 6]: 0.4 mg/dL
- LDH, Change from Baseline, Median ([3]; Week 2 (Infusion 2), N=14): 24.0 U/L
- LDH, Observed Values, Mean ([3]; Week 2 (Infusion 2), N=14): 386.6 U/L
- LDH, Observed Values, Median ([3]; Week 2 (Infusion 2), N=14): 325.5 U/L
- Phosphorus, Change from Baseline, Mean ([3]; Week 2 (Infusion 2), N=14): 0.1 mg/dL
- Phosphorus, Change from Baseline, Median ([3]; Week 2 (Infusion 2), N=14): 0.1 mg/dL
- Phosphorus, Observed Values, Mean ([3]; Week 2 (Infusion 2), N=14): 3.2 mg/dL
- Phosphorus, Observed Values, Median ([3]; Week 2 (Infusion 2), N=14): 3.2 mg/dL
- Total Bilirubin, Change from Baseline, Mean ([3]; Week 2 (Infusion 2), N=14): -0.1 mg/dL
- Total Bilirubin, Change from Baseline, Median ([3]; Week 2 (Infusion 2), N=14): 0.0 mg/dL
- Total Bilirubin, Observed Values, Mean ([3]; Week 2 (Infusion 2), N=14): 0.6 mg/dL
- Total Bilirubin, Observed Values, Median ([3]; Week 2 (Infusion 2), N=14): 0.4 mg/dL
- LDH, Change from Baseline, Median ([3]; Week 4 (Infusion 4), N=11): 3.0 U/L
- LDH, Observed Values, Mean ([3]; Week 4 (Infusion 4), N=11): 277.4 U/L
- LDH, Observed Values, Median ([3]; Week 4 (Infusion 4), N=11): 211.0 U/L
- Phosphorus, Change from Baseline, Mean ([3]; Week 4 (Infusion 4), N=11): -0.1 mg/dL
- Phosphorus, Change from Baseline, Median ([3]; Week 4 (Infusion 4), N=11): 0.0 mg/dL
- Phosphorus, Observed Values, Mean ([3]; Week 4 (Infusion 4), N=11): 3.1 mg/dL
- Phosphorus, Observed Values, Median ([3]; Week 4 (Infusion 4), N=11): 3.0 mg/dL
- Total Bilirubin, Change from Baseline, Mean ([3]; Week 4 (Infusion 4), N=11): 0.2 mg/dL
- Total Bilirubin, Change from Baseline, Median ([3]; Week 4 (Infusion 4), N=11): -0.1 mg/dL
- Total Bilirubin, Observed Values, Mean ([3]; Week 4 (Infusion 4), N=11): 0.8 mg/dL
- Total Bilirubin, Observed Values, Median ([3]; Week 4 (Infusion 4), N=11): 0.2 mg/dL
- LDH, Change from Baseline, Median ([3]; Week 6 (Infusion 6), N=9): −20.0 U/L
- LDH, Observed Values, Mean ([3]; Week 6 (Infusion 6), N=9): 265.6 U/L
- LDH, Observed Values, Median ([3]; Week 6 (Infusion 6), N=9): 173.0 U/L
- Phosphorus, Change from Baseline, Mean ([3]; Week 6 (Infusion 6), N=9): -0.1 mg/dL
- Phosphorus, Change from Baseline, Median ([3]; Week 6 (Infusion 6), N=9): 0.2 mg/dL
- Phosphorus, Observed Values, Mean ([3]; Week 6 (Infusion 6), N=9): 3.1 mg/dL
- Phosphorus, Observed Values, Median ([3]; Week 6 (Infusion 6), N=9): 3.3 mg/dL
- Total Bilirubin, Change from Baseline, Mean ([3]; Week 6 (Infusion 6), N=9): 1.2 mg/dL
- Total Bilirubin, Change from Baseline, Median ([3]; Week 6 (Infusion 6), N=9): -0.1 mg/dL
- Total Bilirubin, Observed Values, Mean ([3]; Week 6 (Infusion 6), N=9): 1.9 mg/dL
- Total Bilirubin, Observed Values, Median ([3]; Week 6 (Infusion 6), N=9): 0.3 mg/dL
- LDH, Change from Baseline, Median ([3]; Week 8 (Infusion 8), N=6): −25.0 U/L
- LDH, Observed Values, Mean ([3]; Week 8 (Infusion 8), N=6): 245.0 U/L
- LDH, Observed Values, Median ([3]; Week 8 (Infusion 8), N=6): 161.0 U/L
- Phosphorus, Change from Baseline, Mean ([3]; Week 8 (Infusion 8), N=7): 0.3 mg/dL
- Phosphorus, Change from Baseline, Median ([3]; Week 8 (Infusion 8), N=7): 0.0 mg/dL
- Phosphorus, Observed Values, Mean ([3]; Week 8 (Infusion 8), N=7): 3.4 mg/dL
- Phosphorus, Observed Values, Median ([3]; Week 8 (Infusion 8), N=7): 3.4 mg/dL
- Total Bilirubin, Change from Baseline, Mean ([3]; Week 8 (Infusion 8), N=7): -0.0 mg/dL
- Total Bilirubin, Change from Baseline, Median ([3]; Week 8 (Infusion 8), N=7): -0.1 mg/dL
- Total Bilirubin, Observed Values, Mean ([3]; Week 8 (Infusion 8), N=7): 0.4 mg/dL
- Total Bilirubin, Observed Values, Median ([3]; Week 8 (Infusion 8), N=7): 0.4 mg/dL
- LDH, Change from Baseline, Median ([3]; Week 10 (Follow-up), N=5): −15.0 U/L
- LDH, Observed Values, Mean ([3]; Week 10 (Follow-up), N=5): 214.6 U/L
- LDH, Observed Values, Median ([3]; Week 10 (Follow-up), N=5): 155.0 U/L
- Phosphorus, Change from Baseline, Mean ([3]; Week 10 (Follow-up), N=6): 0.0 mg/dL
- Phosphorus, Change from Baseline, Median ([3]; Week 10 (Follow-up), N=6): 0.3 mg/dL
- Phosphorus, Observed Values, Mean ([3]; Week 10 (Follow-up), N=6): 3.2 mg/dL
- Phosphorus, Observed Values, Median ([3]; Week 10 (Follow-up), N=6): 3.3 mg/dL
- Total Bilirubin, Change from Baseline, Mean ([3]; Week 10 (Follow-up), N=6): 0.1 mg/dL
- Total Bilirubin, Change from Baseline, Median ([3]; Week 10 (Follow-up), N=6): -0.1 mg/dL
- Total Bilirubin, Observed Values, Mean ([3]; Week 10 (Follow-up), N=6): 0.5 mg/dL
- Total Bilirubin, Observed Values, Median ([3]; Week 10 (Follow-up), N=6): 0.4 mg/dL
- LDH, Change from Baseline, Median ([3]; Week 13 (Follow-up), N=5): −27.0 U/L
- LDH, Observed Values, Mean ([3]; Week 13 (Follow-up), N=5): 168.2 U/L
- LDH, Observed Values, Median ([3]; Week 13 (Follow-up), N=5): 158.0 U/L
- Phosphorus, Change from Baseline, Mean ([3]; Week 13 (Follow-up), N=5): -0.0 mg/dL
- Phosphorus, Change from Baseline, Median ([3]; Week 13 (Follow-up), N=5): 0.2 mg/dL
- Phosphorus, Observed Values, Mean ([3]; Week 13 (Follow-up), N=5): 3.2 mg/dL
- Phosphorus, Observed Values, Median ([3]; Week 13 (Follow-up), N=5): 3.2 mg/dL
- Total Bilirubin, Change from Baseline, Mean ([3]; Week 13 (Follow-up), N=6): 0.1 mg/dL
- Total Bilirubin, Change from Baseline, Median ([3]; Week 13 (Follow-up), N=6): 0.1 mg/dL
- Total Bilirubin, Observed Values, Mean ([3]; Week 13 (Follow-up), N=6): 0.4 mg/dL
- Total Bilirubin, Observed Values, Median ([3]; Week 13 (Follow-up), N=6): 0.4 mg/dL
- SGOT (serum glutamate oxaloacetate transaminase) [3, 7]: Consistent decreases
- SGPT (serum glutamate pyruvate transaminase) [3, 7]: Consistent decreases
- serum LDH (lactate dehydrogenase) [3, 7]: Consistent decreases
- serum levels of bilirubin ([3]; week 13 of treatment): remained stable
- serum levels of lactate dehydrogenase (LDH) ([3]; week 13 of treatment): dropped
